Results reported in PMC2376372, “3-Bromophenyl 6-acetoxymethyl-2-oxo-2H-1-benzopyran-3-carboxylate inhibits cancer cell invasion in vitro and tumour growth in vivo” (British Journal of Cancer, 2003).

Legend:
HMW-uPA = target: T1, HMW-uPA (Homo sapiens, UniProt P00749); experiment: Inhibition of purified HMW-uPA; assay type: biochemical; settings: purified enzyme, pH 7.5, 25°C
T1 construct: purchased Choay
Protocol: (§1) Bovine α-CT and LMW-uPA (MW=33 000 Da) were purchased from Sigma, HMW-uPA (MW=54 000 Da) from Choay, trypsin (TRY) and THR from Boehringer-Indelheim (Germany), and MMP-2 and MMP-9 from Calbiochem. Human leucocyte elastase and PM were from Elastase Products Co. and Biogenic, respectively. Except for THR, HMW-uPA, MMP-2 and MMP-9, enzyme concentrations were determined by active-site titrations using the appropriate titrant ([Bender et al, 1966]; [Chase and Shaw, 1970]; [Powers and Gupton, 1977]). Several enzymes were assayed spectrophotometrically at 405 nm using the following p-nitroanilide substrates: succininyl-Ala2-Pro-Phe-p-nitroanilide (Suc-AAPF-p-NA), benzoyl-Arg-p-nitroanilide (Bz-R-p-NA) and methoxysuccinyl-Ala2-Pro-Val-p-nitroanilide (MeO-Suc-AAPV-p-NA) for α-CT, TRY and HLE, respectively (obtained from Sigma); or S-2238 ([…]), S-2444 (<Glu-Gly-Arg-p-nitroanilide) and S-2251 (H-D-Val-Leu-Lys-p-nitroanilide) for THR, HMW- and LMW-uPA, and PM, respectively (from Biogenic). Matrix metalloprotease-2 previously activated by treatment with APMA were assayed at 412 nm with the thiopeptide Ac-Pro-Leu-Gly-^Sleu-Leu-Gly-Oet in the presence of 5,5′-dithiobis(2-nitrobenzenic) acid (DTNB). […]

MMP-2 = target: T2, MMP-2 (Homo sapiens, UniProt P08253); experiment: Inhibition of purified MMP-2; assay type: biochemical; settings: purified enzyme, pH 7.5, 25°C
T2 construct: purchased Calbiochem
T2 sequence (P08253 110-660): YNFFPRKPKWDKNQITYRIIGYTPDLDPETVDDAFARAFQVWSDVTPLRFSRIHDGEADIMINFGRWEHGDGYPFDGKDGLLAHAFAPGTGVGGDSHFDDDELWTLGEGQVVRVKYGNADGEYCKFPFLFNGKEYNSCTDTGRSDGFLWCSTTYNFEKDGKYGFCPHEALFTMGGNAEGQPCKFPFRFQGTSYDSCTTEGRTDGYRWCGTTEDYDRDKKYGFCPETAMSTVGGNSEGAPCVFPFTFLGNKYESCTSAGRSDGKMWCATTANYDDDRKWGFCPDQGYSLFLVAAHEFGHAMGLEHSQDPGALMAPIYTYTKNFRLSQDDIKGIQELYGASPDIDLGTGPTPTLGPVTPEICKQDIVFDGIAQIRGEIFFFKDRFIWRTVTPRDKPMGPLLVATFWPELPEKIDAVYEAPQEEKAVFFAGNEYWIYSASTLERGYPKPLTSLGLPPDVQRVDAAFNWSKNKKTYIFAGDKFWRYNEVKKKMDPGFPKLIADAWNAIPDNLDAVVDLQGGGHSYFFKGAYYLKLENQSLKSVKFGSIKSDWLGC
Protocol: as §1

HMW- and LMW-uPA = experiment: Plasminogen zymography of HT1080 conditioned medium; assay type: biochemical, human; settings: 1–100 μM in HT1080 conditioned medium
Protocol: The culture medium of human fibrosarcoma HT1080 cells (DMEM) was removed and concentrated 20-fold in a Vivaspin 6 ml concentrator. It was incubated for 30 min at ambient temperature in nonreducing sample buffer and run under Laemmli conditions ([Laemmli, 1970]) by loading a volume of 25 μl onto 7.5% polyacrylamide gels containing 0.1% sodium dodecyl sulphate (SDS), 2 mg ml^−1 casein and 0.16 μM human plasminogen. Following electrophoresis, gels were incubated for 1 h in 2.5% (v v^−1) Triton X-100 for removal of SDS and then for 1 h at 37°C in 50 mM Tris-HCl, 0.1 M NaCl, pH 7.6. Plasminogen activator (PA) activity was visualised as clear bands of lysis upon staining with 0.1% Coomassie blue R250. Purified human high-molecular-weight two-chain urokinase plasminogen activator (HMW-uPA) and low-molecular-weight urokinase plasminogen activator (LMW-uPA) were run in each gel as positive controls. An analogous protocol was followed to detect enzymatic activities towards MMP-2 and MMP-9 except that the 7% SDS–PAGE contained 1 mg ml^−1 bovine gelatin. The gels were incubated at 37°C for about 18 h in 5 mM Tris, pH 7.6 containing 0.2 M NaCl, 5 mM CaCl2 and 0.02 (w v^−1) Brij35. Protein staining was performed during 1 h with a 0.25% solution of Coomassie brillant blue R250 in 50% methanol and 7% acetic acid and destaining in a solution of 20% methanol and […]. […]

Structure (SMILES): CC(=O)OCc1ccc2oc(=O)c(C(=O)Oc3cccc(Br)c3)cc2c1 [compound 7, 3-bromophenyl 6-acetoxy-methyl-2-oxo-2H-1-benzopyran-3-carboxylate]
- inhibition of HMW-uPA (HMW-uPA): not affected
- inhibition of MMP-2 (MMP-2): not affected
- effect on HMW- and LMW-uPA activities of conditioned culture medium (plasminogen zymography) (HMW- and LMW-uPA): did not abrogate

Structure (SMILES): CC(=O)OCc1ccc2oc(=O)c(C(=O)Oc3cccc(Cl)c3)cc2c1 [compound 4, 3-chlorophenyl 6-acetoxymethyl-2-oxo-2H-1-benzopyran-3-carboxylate]
- inhibition of HMW-uPA (HMW-uPA): not affected
- inhibition of MMP-2 (MMP-2): not affected
- effect on HMW- and LMW-uPA activities of conditioned culture medium (plasminogen zymography) (HMW- and LMW-uPA): did not abrogate
